# How the values were obtained:
# glucosidase [1] = test: Sucrose feeding test: postprandial blood sugar after oral sucrose + glucosidase inhibitor in fasting rats; assay type: in vivo, rat
# Method: (§1) The in vivo activity of the compound was tested on some examples using the experimental arrangement described in the following text.
# (§2) Oral administration of starch or sucrose causes a rise in the blood sugar in warm-blooded animals, provided that the carbohydrates are enzymatically degraded in the small intestine to monosaccharides. The inhibition of their enzymatic hydrolysis by glucosidase inhibitors causes a reduced rise in the blood sugar.
# (§3) In order to detect the action of glucosidase inhibitors, 6 fasting rats receive perorally, 1 g of broiled starch or 2.5 g of sucrose/kg in the form of an aqueous suspension or in the form of an aqueous solution (starch and sucrose control respectively). An equal number of rats receive the glucosidase inhibitor in the dose indicated, together with the same amount of the carbohydrate concerned. An equal volume of physiological sodium chloride solution is administered orally to a further six rats (control). After administration of the carbohydrate concerned±glucosidae inhibitor, the postprandial change in blood sugar is measured, at the times indicated, in blood from the postorbital venous plexus in an auto-analyser according to the method of W. S. Hoffmann [J biol. Chem 120, 51 (1937)].
# glucosidase [2] = test: Starch feeding test: postprandial blood sugar after oral starch + glucosidase inhibitor in fasting rats; assay type: in vivo, rat; settings: for Blood sugar ± standard deviation, 45 minutes: starch control 120 ± 7.9, fasting control 102 ± 6.7; for Blood sugar ± standard deviation, 60 minutes: starch control 118 ± 6.9, fasting control 88 ± 7.4
# Method: as §1, §2, §3
# [3] = 10 mg/kg perorally + 2.5 g sucrose/kg, sucrose control 113 ± 6.5, fasting control 61 ± 13
# [4] = 10 mg/kg perorally + 2.5 g sucrose/kg, sucrose control 116 ± 9.2, fasting control 65 ± 3.9
# [5] = 10 mg/kg perorally + 2.5 g sucrose/kg, sucrose control 104 ± 12, fasting control 66 ± 6.9
# [6] = 10 mg/kg perorally + 2.5 g sucrose/kg, sucrose control 123 ± 8.1, fasting control 76 ± 3.7
# [7] = 10 mg/kg perorally + 1 g starch/kg, starch control 146 ± 19, fasting control 82 ± 12
# [8] = 10 mg/kg perorally + 1 g starch/kg, starch control 144 ± 8.9, fasting control 72 ± 10
# [9] = 10 mg/kg perorally + 1 g starch/kg
Compound,"Blood sugar ± standard deviation, 15 minutes (glucosidase [1]; [3]) [mg/dL]","Blood sugar ± standard deviation, 30 minutes (glucosidase [1]; [4]) [mg/dL]","Blood sugar ± standard deviation, 45 minutes (glucosidase [1]; [5]) [mg/dL]","Blood sugar ± standard deviation, 60 minutes (glucosidase [1]; [6]) [mg/dL]","Blood sugar ± standard deviation, 15 minutes (glucosidase [2]; [7]) [mg/dL]","Blood sugar ± standard deviation, 30 minutes (glucosidase [2]; [8]) [mg/dL]","Blood sugar ± standard deviation, 45 minutes (glucosidase [2]; [9]) [mg/dL]","Blood sugar ± standard deviation, 60 minutes (glucosidase [2]; [9]) [mg/dL]",other results
"C[C@H]1O[C@H](O[C@H]2[C@H](O)[C@@H](O)[C@@H](O[C@H]3[C@H](O)[C@@H](O)[C@H](Oc4ccc([N+](=O)[O-])cc4)O[C@@H]3CO)O[C@@H]2CO)[C@H](O)[C@@H](O)[C@@H]1N[C@H]1C=C(CO)[C@@H](O)[C@H](O)[C@H]1O [Compound 1, p-Nitrophenyl-O-{C}-(1→4)-O-α-D-glcp-(1→4)-β-D-glucopyranoside]",–,–,–,–,–,–,–,–,"Blood sugar ± standard deviation, 15 minutes (glucosidase [1]; 0.86 mg/kg perorally + 2.5 g sucrose/kg, sucrose control 128 ± 8.0, fasting control 60 ± 4.6): 103 ± 6.4 mg/dL; Blood sugar ± standard deviation, 30 minutes (glucosidase [1]; 0.86 mg/kg perorally + 2.5 g sucrose/kg, sucrose control 133 ± 8.7, fasting control 64 ± 3.7): 110 ± 10 mg/dL; Blood sugar ± standard deviation, 45 minutes (glucosidase [1]; 0.86 mg/kg perorally + 2.5 g sucrose/kg, sucrose control 134 ± 6.1, fasting control 73 ± 7.1): 108 ± 13 mg/dL; Blood sugar ± standard deviation, 60 minutes (glucosidase [1]; 0.86 mg/kg perorally + 2.5 g sucrose/kg, sucrose control 119 ± 10, fasting control 66 ± 4.2): 107 ± 11 mg/dL; Blood sugar ± standard deviation, 15 minutes (glucosidase [2]; 0.86 mg/kg perorally + 1 g starch/kg, starch control 131 ± 7.2, fasting control 60 ± 4.2): 93 ± 6.4 mg/dL; Blood sugar ± standard deviation, 30 minutes (glucosidase [2]; 0.86 mg/kg perorally + 1 g starch/kg, starch control 113 ± 9.2, fasting control 62 ± 3.4): 84 ± 12 mg/dL"
"C[C@H]1O[C@H](O[C@H]2[C@H](O)[C@@H](O)[C@H](OCc3ccccc3)O[C@@H]2CO)[C@H](O)[C@@H](O)[C@@H]1N[C@H]1C=C(CO)[C@@H](O)[C@H](O)[C@H]1O [Compound 20, Benzyl-O-{C}-(1→4)-β-D-glucopyranoside]",83 ± 20,85 ± 8.3,73 ± 8.5,69 ± 9.3,87 ± 12,83 ± 13,99 ± 17,111 ± 5.6,–
"C[C@H]1O[C@H](O[C@H]2[C@H](O)[C@@H](O)[C@@H](O[C@H]3[C@H](O)[C@@H](O)[C@H](Oc4cccc(O)c4)O[C@@H]3CO)O[C@@H]2CO)[C@H](O)[C@@H](O)[C@@H]1N[C@H]1C=C(CO)[C@@H](O)[C@H](O)[C@H]1O [Compound 3, m-Hydroxyphenyl-O-{C}-(1→4)-O-α-D-glcp-(1→4)-β-D- glucopyranoside]",–,–,–,–,–,–,–,–,"Blood sugar ± standard deviation, 15 minutes (glucosidase [1]; 0.92 mg/kg perorally + 2.5 g sucrose/kg, sucrose control 128 ± 8.0, fasting control 60 ± 4.6): 97 ± 10 mg/dL; Blood sugar ± standard deviation, 30 minutes (glucosidase [1]; 0.92 mg/kg perorally + 2.5 g sucrose/kg, sucrose control 133 ± 8.7, fasting control 64 ± 3.7): 108 ± 4.2 mg/dL; Blood sugar ± standard deviation, 45 minutes (glucosidase [1]; 0.92 mg/kg perorally + 2.5 g sucrose/kg, sucrose control 134 ± 6.1, fasting control 73 ± 7.1): 112 ± 15 mg/dL; Blood sugar ± standard deviation, 60 minutes (glucosidase [1]; 0.92 mg/kg perorally + 2.5 g sucrose/kg, sucrose control 119 ± 10, fasting control 66 ± 4.2): 111 + 11 mg/dl; Blood sugar ± standard deviation, 15 minutes (glucosidase [2]; 0.92 mg/kg perorally + 1 g starch/kg, starch control 131 ± 7.2, fasting control 60 ± 4.2): 89 ± 8.0 mg/dL; Blood sugar ± standard deviation, 30 minutes (glucosidase [2]; 0.92 mg/kg perorally + 1 g starch/kg, starch control 113 ± 9.2, fasting control 62 ± 3.4): 97 ± 13 mg/dL"
C[C@H]1O[C@H](O[C@H]2[C@H](O)[C@@H](O)[C@@H](O[C@@H]([C@H](O)[C@@H](O)CO)[C@H](O)CO)O[C@@H]2CO)[C@H](O)[C@@H](O)[C@@H]1N[C@H]1C=C(CO)[C@@H](O)[C@H](O)[C@H]1O [Compound 22],–,–,–,–,–,–,–,–,"Blood sugar ± standard deviation, 15 minutes (glucosidase [1]; 1.54 mg/kg perorally + 2.5 g sucrose/kg, sucrose control 134 ± 13, fasting control 71 ± 3.7): 80 ± 3.7 mg/dL; Blood sugar ± standard deviation, 30 minutes (glucosidase [1]; 1.54 mg/kg perorally + 2.5 g sucrose/kg, sucrose control 116 ± 20, fasting control 70 ± 5.3): 79 ± 5.2 mg/dL; Blood sugar ± standard deviation, 45 minutes (glucosidase [1]; 1.54 mg/kg perorally + 2.5 g sucrose/kg, sucrose control 125 ± 8.6, fasting control 77 ± 5.5): 86 ± 4.5 mg/dL; Blood sugar ± standard deviation, 60 minutes (glucosidase [1]; 1.54 mg/kg perorally + 2.5 g sucrose/kg, sucrose control 112 ± 15, fasting control 78 ± 7.3): 86 ± 11 mg/dL"
"C[C@H]1O[C@H](O[C@H]2[C@H](O)[C@@H](O)[C@H](Oc3ccccc3)O[C@@H]2CO)[C@H](O)[C@@H](O)[C@@H]1N[C@H]1C=C(CO)[C@@H](O)[C@H](O)[C@H]1O [Compound 13, Phenyl-O-C-(1→4)-β-D-glucopyranoside]",79 ± 6.8,80 ± 5.4,85 ± 16,86 ± 2.0,70 ± 8.3,40 ± 6.8,89 ± 9.0,100 ± 4.6,–
"COC(=O)c1ccc(O[C@@H]2O[C@H](CO)[C@@H](O[C@H]3O[C@H](CO)[C@@H](O[C@H]4O[C@H](C)[C@@H](N[C@H]5C=C(CO)[C@@H](O)[C@H](O)[C@H]5O)[C@H](O)[C@H]4O)[C@H](O)[C@H]3O)[C@H](O)[C@H]2O)cc1 [Compound 6, p-Carbomethoxyphenyl-O-{C}-(1→4)-O-α-D-glcp-(1→5)-β-D-glucopyranoside]",–,–,–,–,–,–,–,–,"Blood sugar ± standard deviation, 15 minutes (glucosidase [1]; 0.78 mg/kg perorally + 2.5 g sucrose/kg, sucrose control 128 ± 8.0, fasting control 60 ± 4.6): 96 ± 15 mg/dL; Blood sugar ± standard deviation, 30 minutes (glucosidase [1]; 0.78 mg/kg perorally + 2.5 g sucrose/kg, sucrose control 133 ± 8.7, fasting control 64 ± 3.7): 100 ± 3.4 mg/dL; Blood sugar ± standard deviation, 45 minutes (glucosidase [1]; 0.78 mg/kg perorally + 2.5 g sucrose/kg, sucrose control 134 ± 6.1, fasting control 73 ± 7.1): 106 ± 18 mg/dL; Blood sugar ± standard deviation, 60 minutes (glucosidase [1]; 0.78 mg/kg perorally + 2.5 g sucrose/kg, sucrose control 119 ± 10, fasting control 66 ± 4.2): 117 ± 6.5 mg/dL; Blood sugar ± standard deviation, 15 minutes (glucosidase [2]; 0.78 mg/kg perorally + 1 g starch/kg, starch control 131 ± 7.2, fasting control 60 ± 4.2): 110 ± 6.1 mg/dL; Blood sugar ± standard deviation, 30 minutes (glucosidase [2]; 0.78 mg/kg perorally + 1 g starch/kg, starch control 113 ± 9.2, fasting control 62 ± 3.4): 105 ± 10 mg/dL"
"CCO[C@@H]1O[C@H](CO)[C@@H](O[C@H]2O[C@H](C)[C@@H](N[C@H]3C=C(CO)[C@@H](O)[C@H](O)[C@H]3O)[C@H](O)[C@H]2O)[C@H](O)[C@H]1O [Compound 15, Ethyl-O-{C}-(1→4)-β-D-glucopyranoside]",80 ± 6.1,83 ± 9.4,87 ± 4.8,94 ± 13,–,–,–,–,–
"COC(=O)c1cccc(O[C@@H]2O[C@H](CO)[C@@H](O[C@H]3O[C@H](CO)[C@@H](O[C@H]4O[C@H](C)[C@@H](N[C@H]5C=C(CO)[C@@H](O)[C@H](O)[C@H]5O)[C@H](O)[C@H]4O)[C@H](O)[C@H]3O)[C@H](O)[C@H]2O)c1 [Compound 4, m-Carbomethoxyphenyl-O-{C}-(1→4)-O-α-D-glcp-(1→4)-β-D-glucopyranoside]",–,–,–,–,–,–,–,–,"Blood sugar ± standard deviation, 15 minutes (glucosidase [1]; 1.56 mg/kg perorally + 2.5 g sucrose/kg, sucrose control 128 ± 8.0, fasting control 60 ± 4.6): 95 ± 7.0 mg/dL; Blood sugar ± standard deviation, 30 minutes (glucosidase [1]; 1.56 mg/kg perorally + 2.5 g sucrose/kg, sucrose control 133 ± 8.7, fasting control 64 ± 3.7): 112 ± 5.5 mg/dL; Blood sugar ± standard deviation, 45 minutes (glucosidase [1]; 1.56 mg/kg perorally + 2.5 g sucrose/kg, sucrose control 134 ± 6.1, fasting control 73 ± 7.1): 104 ± 6.7 mg/dL; Blood sugar ± standard deviation, 60 minutes (glucosidase [1]; 1.56 mg/kg perorally + 2.5 g sucrose/kg, sucrose control 119 ± 10, fasting control 66 ± 4.2): 115 ± 7.0 mg/dL; Blood sugar ± standard deviation, 15 minutes (glucosidase [2]; 1.56 mg/kg perorally + 1 g starch/kg, starch control 131 ± 7.2, fasting control 60 ± 4.2): 99 ± 8.1 mg/dL; Blood sugar ± standard deviation, 30 minutes (glucosidase [2]; 1.56 mg/kg perorally + 1 g starch/kg, starch control 113 ± 9.2, fasting control 62 ± 3.4): 97 ± 10 mg/dL"
"C[C@H]1O[C@H](O[C@H]2[C@H](O)[C@@H](O)[C@@H](O[C@H]3[C@H](O)[C@@H](O)[C@H](Oc4ccccc4)O[C@@H]3CO)O[C@@H]2CO)[C@H](O)[C@@H](O)[C@@H]1N[C@H]1C=C(CO)[C@@H](O)[C@H](O)[C@H]1O [Compound 2, Phenyl-O-{C}-(1→4)-O-α-D-glcp-(1→4)-β-D-glucopyranoside]",79 ± 4.1,86 ± 10,74 ± 7.2,71 ± 15,102 ± 10,73 ± 9.1,100 ± 6.5,108 ± 9.3,–

# From patent publication US4175123A, “Amino-sugar derivatives, process for their preparation and pharmaceutical composition thereof” (Bayer Aktiengesellschaft, priority 1976, dated 1979)
